Patent US12441726B2, “Compounds and uses thereof” (Foghorn Therapeutics Inc., priority 2020, dated 2025)
Where two headings read alike, the source gives them in different places.

Legend:
BRG-1 = BRG-1 (Homo sapiens, UniProt P51532); experiment: ATPase catalytic activity assay (ADP-Glo), BRG-1; conditions: for Emax: 1 h, read-out: BRG1 Max % Inhibition, ADP-Glo, 30 nM BRG-1, 400 μM ATP
BRM = BRM (Homo sapiens, UniProt P51531); experiment: ATPase catalytic activity assay (ADP-Glo), BRM; conditions: 30 nM BRM, 400 μM ATP; for IC50: BRM ATPase: IC50 (uM)
Sequence of BRM (P51531 whole entry): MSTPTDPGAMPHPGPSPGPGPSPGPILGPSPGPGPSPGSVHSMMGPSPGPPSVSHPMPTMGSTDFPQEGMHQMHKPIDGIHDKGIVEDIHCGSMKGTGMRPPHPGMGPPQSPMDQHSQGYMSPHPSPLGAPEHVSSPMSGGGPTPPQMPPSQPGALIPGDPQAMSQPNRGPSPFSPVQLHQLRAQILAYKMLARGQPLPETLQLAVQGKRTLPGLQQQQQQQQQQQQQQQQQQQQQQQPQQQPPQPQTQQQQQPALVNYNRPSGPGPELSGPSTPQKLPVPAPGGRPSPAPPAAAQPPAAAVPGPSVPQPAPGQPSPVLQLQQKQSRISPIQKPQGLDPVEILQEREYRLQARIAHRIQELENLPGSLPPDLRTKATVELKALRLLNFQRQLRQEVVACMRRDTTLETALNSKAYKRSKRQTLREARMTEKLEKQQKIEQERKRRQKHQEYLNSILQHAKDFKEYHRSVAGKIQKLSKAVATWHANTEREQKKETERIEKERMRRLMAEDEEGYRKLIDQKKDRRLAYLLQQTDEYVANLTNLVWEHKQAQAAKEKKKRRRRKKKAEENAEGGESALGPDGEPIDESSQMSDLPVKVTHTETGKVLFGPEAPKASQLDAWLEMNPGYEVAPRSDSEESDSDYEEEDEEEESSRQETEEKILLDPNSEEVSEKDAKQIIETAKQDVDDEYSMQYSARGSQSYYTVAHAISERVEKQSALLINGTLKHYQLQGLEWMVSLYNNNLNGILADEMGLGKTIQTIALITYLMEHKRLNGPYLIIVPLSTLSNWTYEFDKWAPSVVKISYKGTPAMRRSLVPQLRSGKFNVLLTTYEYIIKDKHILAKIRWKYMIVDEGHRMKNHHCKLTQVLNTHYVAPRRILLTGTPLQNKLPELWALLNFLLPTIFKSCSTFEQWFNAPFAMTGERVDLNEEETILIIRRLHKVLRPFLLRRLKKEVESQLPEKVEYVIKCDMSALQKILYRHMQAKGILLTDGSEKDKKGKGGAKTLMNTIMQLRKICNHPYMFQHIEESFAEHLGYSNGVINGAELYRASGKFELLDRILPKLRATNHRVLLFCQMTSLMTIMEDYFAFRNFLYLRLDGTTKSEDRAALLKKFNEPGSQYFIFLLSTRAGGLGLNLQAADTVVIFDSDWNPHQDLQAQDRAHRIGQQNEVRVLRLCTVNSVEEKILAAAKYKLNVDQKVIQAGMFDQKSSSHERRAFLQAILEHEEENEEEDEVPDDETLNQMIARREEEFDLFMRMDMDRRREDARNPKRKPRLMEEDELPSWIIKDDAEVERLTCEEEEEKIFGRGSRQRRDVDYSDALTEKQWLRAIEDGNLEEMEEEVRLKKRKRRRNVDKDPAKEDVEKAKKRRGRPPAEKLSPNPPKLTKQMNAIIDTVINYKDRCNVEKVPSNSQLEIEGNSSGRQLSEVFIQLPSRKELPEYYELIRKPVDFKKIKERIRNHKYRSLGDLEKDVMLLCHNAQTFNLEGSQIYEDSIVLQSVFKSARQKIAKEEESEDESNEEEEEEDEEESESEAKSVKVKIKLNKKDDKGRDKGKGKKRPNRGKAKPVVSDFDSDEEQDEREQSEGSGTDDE

[1] = ADP-Glo, 30 nM BRG-1, 400 μM ATP

Sequence of BRG-1 (P51532 whole entry): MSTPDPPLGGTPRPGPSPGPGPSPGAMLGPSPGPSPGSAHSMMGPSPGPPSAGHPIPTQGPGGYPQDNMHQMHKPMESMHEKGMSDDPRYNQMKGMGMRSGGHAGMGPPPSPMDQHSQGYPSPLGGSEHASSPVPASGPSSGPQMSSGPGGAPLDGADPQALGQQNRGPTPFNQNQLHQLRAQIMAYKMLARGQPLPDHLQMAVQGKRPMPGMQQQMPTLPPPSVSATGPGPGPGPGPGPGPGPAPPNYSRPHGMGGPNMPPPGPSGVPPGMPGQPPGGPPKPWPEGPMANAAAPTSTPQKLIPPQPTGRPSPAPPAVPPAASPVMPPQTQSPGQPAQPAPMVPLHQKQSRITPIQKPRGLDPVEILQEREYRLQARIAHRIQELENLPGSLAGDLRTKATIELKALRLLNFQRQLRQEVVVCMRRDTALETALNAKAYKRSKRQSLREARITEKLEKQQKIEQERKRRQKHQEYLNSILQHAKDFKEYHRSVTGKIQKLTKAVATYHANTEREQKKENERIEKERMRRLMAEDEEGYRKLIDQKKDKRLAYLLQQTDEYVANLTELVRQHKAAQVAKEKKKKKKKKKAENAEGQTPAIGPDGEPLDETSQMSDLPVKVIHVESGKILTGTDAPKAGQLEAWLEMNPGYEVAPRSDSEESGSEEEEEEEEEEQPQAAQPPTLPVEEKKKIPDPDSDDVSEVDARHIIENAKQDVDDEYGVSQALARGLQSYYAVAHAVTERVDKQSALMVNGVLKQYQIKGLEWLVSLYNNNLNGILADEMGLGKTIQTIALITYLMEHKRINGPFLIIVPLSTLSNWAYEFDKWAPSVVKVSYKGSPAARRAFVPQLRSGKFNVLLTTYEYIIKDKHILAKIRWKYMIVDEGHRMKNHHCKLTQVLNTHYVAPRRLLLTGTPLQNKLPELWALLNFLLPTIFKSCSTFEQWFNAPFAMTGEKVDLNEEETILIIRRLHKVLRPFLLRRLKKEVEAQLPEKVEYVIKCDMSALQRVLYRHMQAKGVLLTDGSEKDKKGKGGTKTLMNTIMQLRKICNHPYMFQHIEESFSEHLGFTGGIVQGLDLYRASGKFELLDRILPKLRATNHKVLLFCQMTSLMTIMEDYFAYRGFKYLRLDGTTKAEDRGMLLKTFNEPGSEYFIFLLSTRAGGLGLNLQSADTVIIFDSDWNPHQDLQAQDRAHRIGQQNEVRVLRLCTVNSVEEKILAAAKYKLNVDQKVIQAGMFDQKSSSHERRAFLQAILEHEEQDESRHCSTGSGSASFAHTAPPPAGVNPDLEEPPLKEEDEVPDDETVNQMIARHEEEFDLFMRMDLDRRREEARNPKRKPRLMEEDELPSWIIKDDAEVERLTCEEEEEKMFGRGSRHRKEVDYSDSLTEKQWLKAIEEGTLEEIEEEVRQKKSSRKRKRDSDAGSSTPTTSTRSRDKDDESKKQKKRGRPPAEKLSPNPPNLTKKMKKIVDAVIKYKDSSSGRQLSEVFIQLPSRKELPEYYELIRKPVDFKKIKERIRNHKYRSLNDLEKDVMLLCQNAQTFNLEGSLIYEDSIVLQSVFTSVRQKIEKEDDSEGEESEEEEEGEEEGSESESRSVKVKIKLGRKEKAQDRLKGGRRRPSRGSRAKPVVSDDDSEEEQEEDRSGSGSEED

SMILES	IC50 (BRG-1) [nM]	Emax (BRG-1) [%]	BRM Max % Inhibition (BRM) [%]	IC50 (BRM) [µM]	BRG1 Max % Inhibition (BRG-1; [1]) [%]	IC50 (BRG-1; read-out: BRG1 ATPase: IC50, ADP-Glo, 30 nM BRG-1, 400 μM ATP) [nM]
C[C@@]1(C#N)COCc2ccc(C(=O)NCc3cc([C@H]4C[C@@H](c5cccc(N6CCOCC6)n5)C4)ccn3)cc21 [Compound 80]	> 1000	29	83	0.1 to 0.5		
C[C@@H]1CN(c2cccc([C@H]3C[C@H](c4ccnc(CNC(=O)c5ccc6c(c5)[C@](C)(C#N)COC6)c4)C3)n2)C[C@H](C)O1 [Compound 81]	100 to 500	90	98	< 0.1		
C[C@@H]1CN(c2cccc([C@H]3C[C@@H](c4ccnc(CNC(=O)c5ccc6c(c5)[C@](C)(C#N)COC6)c4)C3)n2)C[C@H](C)O1 [Compound 82]	> 1000	38	88	0.1 to 0.5		
COCCNC(=O)c1cccc(C#Cc2ccnc(CNC(=O)c3ccc4c(c3)[C@](C)(C#N)COC4)c2)c1 [Compound 83]	< 100	99	101	< 0.1		
CN(C)C(=O)c1cccc(C#Cc2ccnc(CNC(=O)c3ccc4c(c3)[C@](C)(C#N)COC4)c2)c1 [Compound 84]	500 to 1000	53	89	0.1 to 0.5		
C[C@@]1(C#N)COCc2ccc(C(=O)NCc3cc4nc(-c5ccccc5)ccc4cn3)cc21 [Compound 85]			98	< 0.1	77	> 1000
C[C@@]1(F)COCc2ccc(C(=O)NCc3cc4nc(-c5ccccc5)ccc4cn3)cc21 [Compound 86]	> 1000	62	96	0.1 to 0.5		
C[C@H](NC(=O)c1ccc2c(c1)[C@](C)(C#N)COC2)c1cc2nc(-c3ccccc3)ccc2cn1 [Compound 87]	> 1000	87	88	0.5 to 1		
C[C@@H](NC(=O)c1ccc2c(c1)[C@](C)(C#N)COC2)c1cc2nc(-c3ccccc3)ccc2cn1 [Compound 88]	> 1000	73	96	0.1 to 0.5		
C[C@@]1(O)COCc2ccc(C(=O)NCc3cc4nc(-c5ccccc5)ccc4cn3)cc21 [Compound 89]	> 1000	15	76	> 1		
C[C@@]1(CO)CCc2ccc(C(=O)NCc3cc4nc(-c5ccccc5)ccc4cn3)cc21 [Compound 90]	> 1000	24	82	> 1		
COc1cccc(-c2ccc3cnc(CNC(=O)c4ccc5c(c4)[C@](C)(C#N)COC5)cc3n2)c1 [Compound 91]	500 to 1000	85	97	< 0.1		
C[C@@]1(C#N)COCc2ccc(C(=O)NCc3cc4c(cn3)CCN(c3ccccc3)C4)cc21 [Compound 92]	> 1000	64	95	0.1 to 0.5		
COC(=O)c1cccc(-c2ccc3cnc(CNC(=O)c4ccc5c(c4)[C@](C)(C#N)COC5)cc3n2)c1 [Compound 93]	100 to 500	93	99	< 0.1		
C[C@@]1(C#N)COCc2ccc(C(=O)NCc3cc4nc(C5CC5)ccc4cn3)cc21 [Compound 94]	> 1000	45	83	> 1		
C[C@@]1(C#N)COCc2ccc(C(=O)NCc3cc4nc(-c5cc(F)cc(N6CCC6)c5)ccc4cn3)cc21 [Compound 95]	100 to 500	93	99	< 0.1		

SMILES	IC50 (BRG-1) [nM]	Emax (BRG-1) [%]	BRM Max % Inhibition (BRM) [%]	IC50 (BRM) [µM]	BRG1 Max % Inhibition (BRG-1; [1]) [%]	IC50 (BRG-1; read-out: BRG1 ATPase: IC50, ADP-Glo, 30 nM BRG-1, 400 μM ATP) [nM]
CN1C[C@@](C)(C#N)c2cc(C(=O)NCc3cc4nc(-c5ccccc5)ccc4cn3)ccc21 [Compound 96]	> 1000	20	84	> 1		
C[C@@]1(C#N)COCc2ccc(C(=O)NCc3cc4nc(-c5ccccc5)ccc4cn3)cc21 [Compound 97]	> 1000		93	0.1 to 0.5	47	
C[C@@]1(C#N)COCc2ccc(C(=O)NCc3cc4nc(-c5cccc(C(F)F)c5)ccc4cn3)cc21 [Compound 98]	> 1000	81	97	< 0.1		
C[C@@]1(C#N)COc2ccc(C(=O)NCc3cc4nc(-c5ccccc5)ccc4cn3)cc21 [Compound 99]	> 1000	22	63	> 1		
O=C(NCc1cc2nc(-c3ccccc3)ccc2cn1)c1cccc(C2(C(F)F)COC2)c1 [Compound 100]	> 1000	25	83	0.5 to 1		
COc1cc(F)cc(-c2ccc3cnc(CNC(=O)c4ccc5c(c4)[C@](C)(C#N)COC5)cc3n2)c1 [Compound 101]	500 to 1000	78	98	< 0.1		
C[C@@]1(C#N)COCc2ccc(C(=O)NCc3cc4nc(-c5ccccn5)ccc4cn3)cc21 [Compound 102]	> 1000	56	93	0.1 to 0.5		
C[C@@]1(C#N)COCc2ccc(C(=O)NCc3cc4nc(N5CCCCC5)ccc4cn3)cc21 [Compound 103]	> 1000	71	94	0.1 to 0.5		
Cn1cc(-c2ccc3cnc(CNC(=O)c4ccc5c(c4)[C@](C)(C#N)COC5)cc3n2)cn1 [Compound 104]	> 1000	33	84	0.5 to 1		
Cn1ncc2cc(-c3ccc4cnc(CNC(=O)c5ccc6c(c5)[C@](C)(C#N)COC6)cc4n3)ccc21 [Compound 105]	500 to 1000	87	98	< 0.1		
C[C@@]1(C#N)COCc2ccc(C(=O)NCc3cnc4ccc(-c5ccccc5)nc4c3)cc21 [Compound 106]	> 1000	32	80	> 1		
C[C@@]1(C#N)COCc2ccc(C(=O)NCc3cc4nc(C5CCOCC5)ccc4cn3)cc21 [Compound 107]	> 1000	16	71	> 1		
COc1ccc(-c2ccc3cnc(CNC(=O)c4ccc5c(c4)[C@](C)(C#N)COC5)cc3n2)cc1 [Compound 108]	500 to 1000	91	99	< 0.1		
C[C@@]1(CO)COCc2ccc(C(=O)NCc3cc4nc(-c5ccccc5)ccc4cn3)cc21 [Compound 109]	> 1000	11	75	> 1		
Cn1ncc2ccc(-c3ccc4cnc(CNC(=O)c5ccc6c(c5)[C@](C)(C#N)COC6)cc4n3)cc21 [Compound 110]	500 to 1000	86	99	< 0.1		
COc1ccccc1-c1ccc2cnc(CNC(=O)c3ccc4c(c3)[C@](C)(C#N)COC4)cc2n1 [Compound 111]	100 to 500	93	101	< 0.1		
